Structures are written as SMILES.

Data on 16 molecules can be found in patent US20200216416A1, “QUINOLINE COMPOUNDS AS INHIBITORS OF TAM AND MET KINASES” (Array BioPharma Inc., priority 2019, published 2020).

One test concerns the target T1, human MET kinase D1228N (Homo sapiens, UniProt P08581, D1228N).
T1 construct: GST-tagged recombinant human MET kinase domain; purchased Signal Chem
The test is described as follows: c-Met Enzyme Assay, D1228N mutant. The settings on record: averaged IC50; D1228N 2 nM; 60-minute incubation at 22° C.; read-out: D1228 N IC50. The class given is binding. In a few lines: (§1)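 GST-tagged recombinant MET kinase domain was incubated with 50 nM Alexa-Fluor tracer 236, 2 nM Eu-anti-GST and compound in 25 mM HEPES pH 7.4, 10 mM MgCl2, 0.01% Triton X-100, 1 mM DTT, 2% DMSO for 60 min at 22 °C. TR-FRET ratio gave percent of control, fitted 4-parameter; IC50 at 50 POC.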

The target in another test is T2, human MET kinase D1228H (Homo sapiens, UniProt P08581, D1228H).
T2 construct: GST-tagged recombinant human MET kinase domain; purchased Signal Chem
Description: c-Met Enzyme Assay, D1228H mutant. It counts as binding. The settings on record: averaged IC50; D1228H 2 nM; 60-minute incubation at 22° C.; read-out: D1228 H IC50. The essentials:
as §1

Test [1] deals with T3, His-tagged recombinant human MER cytoplasmic domain (Homo sapiens, UniProt Q12866).
T3 construct: His-tagged recombinant human MER cytoplasmic domain
T3 sequence (Q12866 527-999 limits assumed): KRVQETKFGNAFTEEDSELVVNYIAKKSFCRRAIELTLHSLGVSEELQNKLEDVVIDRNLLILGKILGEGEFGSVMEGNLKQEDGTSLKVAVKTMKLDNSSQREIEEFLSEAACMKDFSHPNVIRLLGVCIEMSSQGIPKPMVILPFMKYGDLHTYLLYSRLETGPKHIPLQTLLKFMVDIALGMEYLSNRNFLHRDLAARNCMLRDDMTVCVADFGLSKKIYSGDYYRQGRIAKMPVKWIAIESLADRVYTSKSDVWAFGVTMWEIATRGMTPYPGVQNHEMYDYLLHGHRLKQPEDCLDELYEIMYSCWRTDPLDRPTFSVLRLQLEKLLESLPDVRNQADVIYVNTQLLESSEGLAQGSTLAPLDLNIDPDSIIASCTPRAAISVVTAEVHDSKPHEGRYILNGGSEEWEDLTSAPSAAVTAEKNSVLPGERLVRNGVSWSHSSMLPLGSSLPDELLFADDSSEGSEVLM
Description: MER Enzyme Assay (LanthaScreen Eu Kinase Binding). The settings on record: averaged IC50; MER 5 nM; 60-minute incubation at 22° C.; TR-FRET. The essentials:
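TR-FRET binding: 5 nM His-MER cytoplasmic domain with 20 nM Tracer 236, 2 nM biotin-anti-His and 2 nM Eu-streptavidin in pH 7.4 HEPES, 10 mM MgCl2, 2% DMSO, with threefold compound dilutions, 60 min at 22 °C. Percent of control was fit to a 4-parameter logistic, and IC50 was taken at 50 POC.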
On the technique in general: In TR-FRET formats the signal depends on donor and acceptor labels being close together.

Test [2] has as its target T4, His-tagged recombinant human AXL cytoplasmic domain (Homo sapiens, UniProt P30530).
T4 construct: His-tagged recombinant human AXL cytoplasmic domain
T4 sequence (P30530 473-894 limits assumed): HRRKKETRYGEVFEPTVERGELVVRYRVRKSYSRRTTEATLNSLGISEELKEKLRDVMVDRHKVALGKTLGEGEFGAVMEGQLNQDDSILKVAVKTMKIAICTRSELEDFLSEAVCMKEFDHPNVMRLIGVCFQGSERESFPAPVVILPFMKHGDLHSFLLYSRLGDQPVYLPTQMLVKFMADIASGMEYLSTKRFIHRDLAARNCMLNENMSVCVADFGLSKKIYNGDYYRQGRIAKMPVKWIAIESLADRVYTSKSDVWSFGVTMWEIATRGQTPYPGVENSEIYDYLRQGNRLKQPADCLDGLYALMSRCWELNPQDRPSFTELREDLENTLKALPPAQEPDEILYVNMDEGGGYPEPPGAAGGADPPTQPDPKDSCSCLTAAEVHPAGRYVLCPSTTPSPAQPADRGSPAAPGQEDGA
The test is described as follows: AXL Enzyme Assay (LanthaScreen Eu Kinase Binding). The settings on record: averaged IC50; 60-minute incubation at 22° C.; TR-FRET. In a few lines: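 TR-FRET binding-displacement format: 20 nM Alexa Fluor Tracer 236, 2 nM biotin-anti-His and 2 nM Eu-streptavidin in 25 mM HEPES pH 7.4, 10 mM MgCl2, 0.01% Triton X-100, 2% DMSO. After 60 min at 22 °C, ratiometric percent of control was fitted to a 4-parameter logistic curve, IC50 taken at 50 POC.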

T1 sequence (P08581 1078-1345 D1228N): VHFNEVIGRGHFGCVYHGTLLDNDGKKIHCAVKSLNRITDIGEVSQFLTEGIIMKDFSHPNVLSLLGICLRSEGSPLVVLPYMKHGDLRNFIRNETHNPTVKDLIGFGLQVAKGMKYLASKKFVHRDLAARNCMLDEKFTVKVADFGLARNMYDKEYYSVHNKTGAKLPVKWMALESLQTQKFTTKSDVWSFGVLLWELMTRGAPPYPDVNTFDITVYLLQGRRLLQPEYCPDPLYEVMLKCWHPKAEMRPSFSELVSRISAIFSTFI
T2 sequence (P08581 1078-1345 D1228H): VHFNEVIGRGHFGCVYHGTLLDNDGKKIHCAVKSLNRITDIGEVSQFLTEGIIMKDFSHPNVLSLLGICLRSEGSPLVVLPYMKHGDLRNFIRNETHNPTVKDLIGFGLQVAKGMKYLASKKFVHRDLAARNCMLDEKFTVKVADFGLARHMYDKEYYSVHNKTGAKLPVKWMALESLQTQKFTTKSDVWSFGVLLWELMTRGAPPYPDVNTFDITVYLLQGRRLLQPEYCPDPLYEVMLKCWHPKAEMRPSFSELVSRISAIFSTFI

By IC50 is commonly meant the concentration at which inhibition is half-maximal. With `COc1cc2nccc(Oc3ccc(NC(=O)c4cn(CC(=O)N(C)C)cc(-c5ccc(F)c(F)c5)c4=O)nc3)c2cc1OC` [Example 24, 5-(3,4-difluorophenyl)-N-(5-((6,7-dimethoxyquinolin-4-yl)oxy)pyridin-2-yl)-1-(2-(dimethylamino)-2-oxoethyl)-4-oxo-1,4-dihydropyridine-3-carboxamide], the IC50 at human MET kinase D1228N came out at 36.7 nM; at human MET kinase D1228H, 15.2 nM; in test [1], 5 nM; in test [2], 1 nM.

`COc1cc2nccc(Oc3ccc(NC(=O)c4cn(CCC(C)C)cc(-c5ccc(F)c(F)c5)c4=O)nc3)c2cc1OC` [Example 35, 5-(3,4-difluorophenyl)-N-(5-((6,7-dimethoxyquinolin-4yl)oxy)pyridin-2-yl)-1-isopentyl-4-oxo-1,4-dihydropyridine-3-carboxamide]: the concentration for half-maximal inhibition (IC50) on human MET kinase D1228N came out at 16.2 nM; on human MET kinase D1228H, 8.3 nM; in test [1], 15 nM; in test [2], 6 nM.

For `COc1cc2nccc(Oc3ccc(NC(=O)c4cn(CCN(C)C)cc(-c5ccc(F)c(F)c5)c4=O)nc3)c2cc1OC` [Example 43, 5-(3,4-difluorophenyl)-N-(5-((6,7-dimethoxyquinolin-4-yl)oxy)pyridin-2-yl)-1-], the concentration for half-maximal inhibition (IC50) at human MET kinase D1228N is 2.7 nM; at human MET kinase D1228H it was 1.6 nM; in test [1], 5 nM; in test [2], 2 nM.

Turning to `COc1cc2nccc(Oc3ccc(NC(=O)c4cn(CCC(C)C)cc(-c5ccc(F)cc5F)c4=O)nc3)c2cc1OC` [Example 36, 5-(2,4-difluorophenyl)-N-(5-((6,7-dimethoxyquinolin-4yl)oxy)pyridin-2-yl)-1-isopentyl-4-oxo-1,4-dihydropyridine-3-carboxamide], the half-inhibitory concentration (IC50) on human MET kinase D1228N was determined as 4.8 nM; at human MET kinase D1228H, 1.8 nM; in test [1] it was 8 nM; in test [2], 3 nM.

In the case of `COc1cc2nccc(Oc3ccc(NC(=O)c4cn(CCN(C)C)cc(-c5ccc(F)cc5F)c4=O)nc3)c2cc1OC` [Example 44, 5-(2,4-difluorophenyl)-N-(5-((6,7-dimethoxyquinolin-4-yl)oxy)pyridin-2-yl)-1-(2-(dimethylamino)ethyl)-4-oxo-1,4-dihydropyridine-3-carboxamide], the IC50 at human MET kinase D1228N is 3.2 nM; on human MET kinase D1228H it was 1.9 nM; in test [1], 3 nM; in test [2], 2 nM.

For `COc1cc2c(Oc3ccc(NC(=O)c4cn(C(C)C)cc(-c5ccc(F)cc5)c4=O)nc3)ccnc2cc1OCCCN1CCOCC1` [Example 56, 5-(4-fluorophenyl)-1-isopropyl-N-(5-((6-methoxy-7-(3-morpholinopropoxy)quinolin-4-yl)oxy)pyridin-2-yl)-4-oxo-1,4-dihydropyridine-3-carboxamide], the IC50 amounted to 4.3 nM on human MET kinase D1228N, 1.9 nM on human MET kinase D1228H, 6 nM in test [1] and 3 nM in test [2].

Turning to `CCn1cc(C(=O)Nc2ccc(Oc3ccnc4ccc(OC)cc34)cn2)c(=O)c(-c2ccc(F)cc2)c1` [Example 39, 1-ethyl-5-(4-fluorophenyl)-N-(5-((6-methoxyquinolin-4-yl)oxy)pyridin-2-yl)-4-oxo-1,4-dihydropyridine-3-carboxamide], the 50% inhibitory concentration (IC50) at human MET kinase D1228N is 179 nM; on human MET kinase D1228H, 66.3 nM; in test [1] it was 16 nM; in test [2], 3 nM.

Turning to `CNC(=O)Cn1cc(C(=O)Nc2ccc(Oc3ccnc4cc(OC)c(OC)cc34)cn2)c(=O)c(-c2ccc(F)cc2)c1` [Example 22], the 50% inhibitory concentration (IC50) at human MET kinase D1228N amounted to 6.5 nM; on human MET kinase D1228H it was 4.2 nM; in test [1], 3 nM; in test [2] it was 2 nM.

Take `COc1cc2nccc(Oc3ccc(NC(=O)c4c[nH]cc(-c5ccc(F)cc5)c4=O)nc3)c2cc1OC` [Example 26, N-(5-((6,7-dimethoxyquinolin-4yl)oxy)pyridin-2-yl)-5-(4-fluorophenyl)-4-oxo-1,4-dihydropyridine-3-carboxamide]: the IC50 at human MET kinase D1228N turned out to be 19.2 nM; on human MET kinase D1228H it was 12.5 nM; in test [1], 5 nM; in test [2], 7 nM.

Turning to `COc1cc2nccc(Oc3ccc(NC(=O)c4cn(CC(C)C)cc(-c5ccc(F)cc5)c4=O)nc3)c2cc1OC` [Example 11, N-(5-((6,7-dimethoxyquinolin-4-yl)oxy)pyridin-2-yl)-5-(4-fluorophenyl)-1-isobutyl-4-oxo-1,4-dihydropyridine-3-carboxamide], the concentration for half-maximal inhibition (IC50) turned out to be 9.4 nM at human MET kinase D1228N, 6.5 nM on human MET kinase D1228H, 16 nM in test [1] and 5 nM in test [2].

With `COc1cc2nccc(Oc3ccc(NC(=O)c4cn(C(C)C)cc(-c5ccc(F)cc5OC)c4=O)nc3)c2cc1OC` [Example 32, N-(5-((6,7-dimethoxyquinolin-4yl)oxy)pyridin-2-yl)-5-(4-fluoro-2-methoxyphenyl)-1-isopropyl-4-oxo-1,4-dihydropyridine-3-carboxamide], the IC50 at human MET kinase D1228N was found to be 17.4 nM; on human MET kinase D1228H, 10 nM; in test [1], 3 nM; in test [2] it was 2 nM.

In the case of `COCCn1cc(C(=O)Nc2ccc(Oc3ccnc4cc(OC)c(OC)cc34)cn2)c(=O)c(-c2ccc(F)cc2)c1` [Example 7, N-(5((6,7-dimethoxyquinolin-4-yl)oxy)pyridin-2-yl)-5-(4-fluorophenyl)-1-(2-methoxyethyl)-4-oxo-1,4-dihydropyridine-3-carboxamide], the IC50 is 6.4 nM on human MET kinase D1228N, 2 nM at human MET kinase D1228H, 3 nM in test [1] and 2 nM in test [2].

Regarding `COc1cc2nccc(Oc3ccc(NC(=O)c4cn(C(C)C)cc(-c5ccc(Cl)cc5)c4=O)nc3)c2cc1OC` [Example 5, 5-(4-chlorophenyl)-N-(5-((6,7-dimethoxyquinolin-4-yl)oxy)pyridin-2-yl)-1-isopropyl-4-oxo-1,4-dihydropyridine-3-carboxamide], the 50% inhibitory concentration (IC50) at human MET kinase D1228N is 16.1 nM; on human MET kinase D1228H, 9.6 nM; in test [1] it was 4 nM; in test [2] it was 2 nM.

Consider `COc1cc2nccc(Oc3ccc(NC(=O)c4cn(C(C)C)cc(-c5ccc(F)c(Cl)c5)c4=O)nc3)c2cc1OC` [Example 21, 5-(3-chloro-4-fluorophenyl)-N-(5-((6,7-dimethoxyquinolin-4-yl)oxy)pyridin-2-yl)-1-isopropyl-4-oxo-1,4-dihydropyridine-3-carboxamide], for which the IC50 on human MET kinase D1228N stood at 31 nM; at human MET kinase D1228H, 18.7 nM; in test [1] it was 10 nM; in test [2], 10 nM.

Consider `COc1cc2nccc(Oc3ccc(NC(=O)c4cn(C(C)C)c(C)c(-c5ccc(F)c(F)c5)c4=O)nc3)c2cc1OC` [Example 28, 5-(3,4-difluorophenyl)-N-(5-((6,7-dimethoxyquinolin-4yl)oxy)pyridin-2-yl)-1-isopropyl-6-methyl-4-oxo-1,4-dihydropyridine-3-carboxamide], for which the concentration for half-maximal inhibition (IC50) on human MET kinase D1228N amounted to 3.6 nM; on human MET kinase D1228H it was 1.4 nM; in test [1] it was 3 nM; in test [2] it was 1 nM.

For `COc1cc2nccc(Oc3ccc(NC(=O)c4cn(C(C)C)cc(-c5ccc(F)cc5)c4=O)cn3)c2cc1OC` [Example 58, N-(6-((6,7-dimethoxyquinolin-4-yl)oxy)pyridin-3-yl)-5-(4-fluorophenyl)-1-isopropyl-4-oxo-1,4-dihydropyridine-3-carboxamide], the IC50 at human MET kinase D1228N came out at 7.7 nM; on human MET kinase D1228H, 3.5 nM; in test [1], 2 nM; in test [2], 1 nM.
